Source: publication PMC10384572, “Marine Meroterpenoids Isolated from Gongolaria abies-marina Induce Programmed Cell Death in Naegleria fowleri” (Pharmaceuticals, 2023)
Where two headings read alike, the source gives them in different places.

Tests used:
[1] = In vitro cytotoxicity against murine macrophages (alamarBlue); format: cell-based; details: mouse, J774A.1 murine macrophages (ATCC TIB-67), murine macrophages J774A.1, 24 h, mean ± SD
Method: (§1) Murine macrophages from the J774A.1 cell line (ATCC® TIB-67) were maintained in Dulbecco’s Modified Eagle’s medium (DMEM) in order to evaluate the toxicity of the compounds. In addition, 10% (v/v) FBS and 10 μg/mL gentamicin (Sigma-Aldrich, Madrid, Spain) were added to the growth medium. Cells were grown in a 5% CO2 atmosphere at 37 °C.
(§2) For the cytotoxicity assays, the same protocol as detailed in Section 4.4 above was used. Murine macrophages were incubated with serial dilutions of the evaluated compounds at 37 °C in a 5% CO2 atmosphere over 24 h. The obtained data were analyzed as described in the previous section in order to calculate the CC50.
(§3) The in vitro IC50, IC90, and CC50 of the compounds were determined by a non-linear regression with a 95% confidence limit. The SigmaPlot 12.0 software (Systat Sofware Inc., London, UK) was used to perform the data analysis using a paired two-tailed t-test. Values of p < 0.05 were considered significant. The data represent the mean value and the SD of the conducted three different experiments.

N. fowleri ATCC® 30808 = test: In vitro activity against N. fowleri trophozoites (alamarBlue), strain ATCC 30808; format: cell-based, Naegleria fowleri; details: for IC50 / IC90: Naegleria fowleri; for Anti-Naegleria activity (in words): both tested strains of N. fowleri
Method: The in vitro activity against N. fowleri trophozoites was evaluated in two different strains from the American Type Culture Collection (LG Promochem, Barcelona, Spain), ATCC® 30808™ and ATCC® 30215™. Cells were axenically grown in 2% Bactocasitone (w/v) medium (Thermo Fisher Scientific, Madrid, Spain) at 37 °C. Moreover, 10% (v/v) of fetal bovine serum (FBS) 0.3 μg/mL of Penicillin G Sodium Salt and 0.5 mg/mL of Streptomycin sulphate (Sigma-Aldrich, Madrid, Spain) were also added to the Bactocasitone medium.
For these assays, a colorimetric assay was conducted using the alamarBlue® reagent. Briefly, N. fowleri trophozoites were seeded in duplicate in a 96-well microtiter plate. After that, different concentrations of the evaluated meroterpenoids diluted in fresh Bactocasitone were added to the wells. The negative control consisted on the trophozoites incubated with the medium alone. Lastly, the alamarBlue® (Life Technologies, Madrid, Spain) reagent was added. Plates were incubated in slight agitation at 37 °C. After 48 h, the fluorescence of the wells was analyzed in an EnSpire Multimode Plate Reader (Perkin Elmer, Madrid, Spain) using a wavelength of excitation of 570 nm and a wavelength of emission of 585 nm.
In order to calculate the IC50 and IC90, a nonlinear regression analysis with a 95% confidence limit was performed.
as §3

[2] = system: N. fowleri ATCC® 30808 trophozoites; test: Mitochondrial membrane potential (JC-1); format: cell-based, Naegleria fowleri; details: IC90 of compound, 24 h
Method: The evaluation of the programmed cell death induction by the meroterpenoids was performed in the ATCC® 30808™ N. fowleri trophozoites. Cells were incubated over 24 h with the IC90 (Table 1) of the compounds at 37 °C. In these experiments, the presence of different metabolic events which are characteristics of the programmed cell death process were evaluated. For this, five different apoptosis events marker kits (the Hoechst 33342/Propidium Iodide, SYTOX™ Green kit, CellROX® Deep Reagent, JC-1 Mitochondrial Membrane Potential Detection Kit, and the Celltiter-Glo® Luminescent Cell Viability Assay) were used according to manufacturer’s instructions. Furthermore, the percentage of stained cells was determined after incubating the treated and non-treated cells with the stains. The mitochondrial damage was evaluated using two different reagents. Firstly, the JC-1 Mitochondrial Membrane Potential Detection Kit (Cayman Chemicals Vitro SA, Madrid, Spain) was used to assess the failure of the mitochondrial membrane potential. Cells were incubated with the compounds at 37 °C to finally add the JC-1 reagent after 24 h. The JC-1 dye is presented in the mitochondria of untreated cells in aggregate form and emits red fluorescence. However, when the membrane potential decreases (unhealthy cells) the dye is presented in monomers, emitting green fluorescence. Images were obtained with an EVOS™ M5000 Imaging System (Invitrogen by Thermo Fisher Scientific). In the PCD assays, the number of stained and unstained cells was measured after the performance of the experiments. Regarding the JC-1 Mitochondrial Membrane Potential assays, the ratio between the emitted red fluorescence (at 595 nm) and green fluorescence (at 535 nm) was determined. For each kit, images (×40) with at least 80 cells were selected and analyzed. […] The graphs illustrate the mean value ± SD of three different tests. Finally, a one-way analysis of variance (ANOVA) was assessed to determine the statistical differences between the treated cells and the negative control amoebae, ** p < 0.01; *** p < 0.001; **** p < 0.0001 significant differences.

[3] = system: N. fowleri ATCC® 30808 trophozoites; test: ROS production (CellROX Deep Red); format: cell-based, Naegleria fowleri; details: IC90 of compound, 24 h
Method: The evaluation of the programmed cell death induction by the meroterpenoids was performed in the ATCC® 30808™ N. fowleri trophozoites. Cells were incubated over 24 h with the IC90 (Table 1) of the compounds at 37 °C. In these experiments, the presence of different metabolic events which are characteristics of the programmed cell death process were evaluated. For this, five different apoptosis events marker kits (the Hoechst 33342/Propidium Iodide, SYTOX™ Green kit, CellROX® Deep Reagent, JC-1 Mitochondrial Membrane Potential Detection Kit, and the Celltiter-Glo® Luminescent Cell Viability Assay) were used according to manufacturer’s instructions. Furthermore, the percentage of stained cells was determined after incubating the treated and non-treated cells with the stains. The determination of ROS generation was carried out using the CellROX Deep Red fluorescent assay (Thermo Fisher Scientific) following manufacturer’s instructions. Briefly, N. fowleri’s trophozoites were incubated with compounds over 24 h at 37 °C. After that, the CellROX stain was added and incubated with the cells for 30 min in the dark. […] In the PCD assays, the number of stained and unstained cells was measured after the performance of the experiments. Regarding the JC-1 Mitochondrial Membrane Potential assays, the ratio between the emitted red fluorescence (at 595 nm) and green fluorescence (at 535 nm) was determined. For each kit, images (×40) with at least 80 cells were selected and analyzed. […] The graphs illustrate the mean value ± SD of three different tests. Finally, a one-way analysis of variance (ANOVA) was assessed to determine the statistical differences between the treated cells and the negative control amoebae, ** p < 0.01; *** p < 0.001; **** p < 0.0001 significant differences.

[4] = system: Murine macrophages J774A.1 (ATCC® TIB-67); test: In vitro cytotoxicity against murine macrophages (alamarBlue); format: cell-based; details: murine macrophages J774A.1, 24 h, mean ± SD
Method: as §1, §2, §3

[5] = ATCC 30215 / ATCC 30808, range over the named compounds and both strains (ATCC 30808 and ATCC 30215), read-out: IC50 against N. fowleri
[6] = ATCC30808, N. fowleri trophozoites, 48 h, alamarBlue, mean ± SD
[7] = ATCC30808, N. fowleri trophozoites, 48 h, alamarBlue, mean ± SD, read-out: IC50 ATCC® 30808

COc1c(C)cc(O)cc1C/C=C(\C)CC(=O)/C=C(\C)CCC[C@@H](C)C(=O)/C=C/C(C)(C)O [1′Methoxyamentadione (3), 1′-methoxyamentadione] showed a CC50 at 24 h [1] of 26.2 ± 2.25 µM, a CC90 at 24 h [1] of 68.7 ± 7.46 µM and an IC50 (N. fowleri ATCC® 30808; [5]) of 13.3 to 20.4 µM. For the same compound, the IC90 (N. fowleri ATCC® 30808; [6]) was 64.9 ± 6.94 µM, the IC50 (N. fowleri ATCC® 30808; [7]) was 19.9 ± 5.27 µM and the “Anti-Naegleria activity (in words)” value (N. fowleri ATCC® 30808) was “active”. For the same compound, the “Mitochondrial membrane potential (JC-1)” value [2] was “mitochondrial membrane potential disruption” and the “ROS production versus negative control (CellROX deep red)” value (from here on “ROS production versus negative control”) [3] was “increased the level of ROS production”.
Compound COc1c(C)cc(O)cc1C/C=C(\C)CC(=O)/C=C(/C)CCC[C@@H](C)C(=O)/C=C/C(C)(C)O [6Z-1′Methoxyamentadione (2), 6Z-1′-methoxyamentadione] has a CC50 at 24 h [1] of 26.6 ± 4.03 µM, a CC90 at 24 h [1] of 67.2 ± 6.32 µM and an IC50 (N. fowleri ATCC® 30808; [5]) of 13.3 to 20.4 µM. The IC90 (N. fowleri ATCC® 30808; [6]) was 55.3 ± 8.28 µM, the IC50 (N. fowleri ATCC® 30808; [7]) was 20.4 ± 4.07 µM and the “Anti-Naegleria activity (in words)” value (N. fowleri ATCC® 30808) was “active”. For the same compound, the “Mitochondrial membrane potential (JC-1)” value [2] was “mitochondrial membrane potential disruption” and the “ROS production versus negative control” value [3] was “increased the level of ROS production”.
In the case of COc1c(C)cc(O)cc1C/C=C(\C)CC(=O)/C=C(\C)CCCC(C)=O [Cystomexicone B (6), cystomexicone B], the CC50 [4] is reported as > 500 µM, the CC50 at 24 h [1] is reported as > 279 µM and the CC90 at 24 h [1] is reported as > 500 µM. For the same compound, the IC90 (N. fowleri ATCC® 30808; [6]) was 206 ± 16.6 µM, the IC50 (N. fowleri ATCC® 30808; [7]) was 58.9 ± 10.1 µM and the “Anti-Naegleria activity (in words)” value (N. fowleri ATCC® 30808) was “active”. The “Selectivity index (SI)” value (N. fowleri ATCC® 30808; cytotoxicity in murine macrophages versus activity against N. fowleri) was > 8.5, the “Mitochondrial membrane potential (JC-1)” value [2] was “mitochondrial membrane potential disruption” and the “ROS production versus negative control” value [3] was “increased the level of ROS production”.
Work on COc1c(C)cc(O)cc1C/C=C(\C)CC(=O)C/C(C)=C/CC[C@@H](C)C(=O)/C=C/C(C)(C)O [Gongolarone B (1), gongolarone B] yielded a CC50 at 24 h [1] of 25.6 ± 4.16 µM, a CC90 at 24 h [1] of 72.9 ± 5.94 µM and an IC90 (N. fowleri ATCC® 30808; [6]) of 58 ± 1.73 µM. For the same compound, the IC50 (N. fowleri ATCC® 30808; [7]) was 21.9 ± 1.6 µM, the “Anti-Naegleria activity (in words)” value (N. fowleri ATCC® 30808) was “active” and the “Mitochondrial membrane potential (JC-1)” value [2] was “mitochondrial membrane potential disruption”. The “ROS production versus negative control” value [3] was “increased the level of ROS production”.
